Reference: the supplement of paper PMC10627819

Columns and labels:
[1] = system: S. aureus Newman; experiment: Bliss interaction score (quartile over a dose matrix) (fitness difference); higher = more antagonism (negative = synergy)
Method in brief: (§1)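 The Bliss score is observed fitness minus expected fitness, where the expected value is the product of single-drug fitness values inferred from combination data. Fitness is OD595 at entry into stationary phase normalised to the plate's robust no-drug mean and capped at 1. Scores are reported as quartiles spanning technical, biological and donor/recipient replicates.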

[2] = system: B. subtilis 168; experiment: as above
Method in brief: as §1

[3] = system: S. pneumoniae D39V; experiment: as above
Method in brief: as §1

[4] = system: S. aureus DSM 20231; experiment: as above
Method in brief: as §1

[5] = system: S. pneumoniae D39V; experiment: fitness (endpoint OD595 vs no drug) (fraction); higher = more growth
Method in brief: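 With the first reading as background, OD595 was measured every 30 min for 14 h in 384-well plates kept at 37 °C and inoculated at OD595 0.01. TSB, LB Lennox or CY was the medium. Fitness is the optical density at the transition into stationary phase divided by the robust mean of no-drug control wells, with a cap of 1.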
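Wherever Bliss interaction score (quartile over a dose matrix) is given: first quartile when negative (synergy) and third quartile when positive (antagonism).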
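Wherever fitness (endpoint OD595 vs no drug) is given: OD595 on entry to stationary phase over no-drug wells; at most 1.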

CC[C@H]1OC(=O)[C@H](C)[C@@H](O[C@H]2C[C@@](C)(OC)[C@@H](O)[C@H](C)O2)[C@H](C)[C@@H](O[C@@H]2O[C@H](C)C[C@H](N(C)C)[C@H]2O)[C@](C)(OC)C[C@@H](C)C(=O)[C@H](C)[C@@H](O)[C@]1(C)O [Clarithromycin] + Cn1nnc(-c2ccc(-c3ccc(N4C[C@H](CO)OC4=O)cc3F)cn2)n1 [Tedizolid]
Details	Bliss interaction score
[1]	-0.106
[2]	-0.0452
[3]	0.0824
[4]	-0.109

fitness, [5], one replicate
Details	first compound 0.007812 µg/mL	first compound 0.01562 µg/mL	first compound 0.03125 µg/mL
partner 0.125 µg/mL	0.739	0.692	0.639
partner 0.25 µg/mL	0.701	0.685	0.686
partner 0.5 µg/mL	0.373	0.381	0.353

fitness, [5]
Details	first compound 0.0625 µg/mL	first compound 0.07 µg/mL	first compound 0.125 µg/mL	first compound 0.14 µg/mL	first compound 0.25 µg/mL	first compound 0.28 µg/mL
partner 0.03125 µg/mL	0.715	–	0.544	–	0.317	–
partner 0.0625 µg/mL	0.727	–	0.571	–	0.336	–
partner 0.125 µg/mL	0.666	0.0645	0.511	0.053	0.275	0.0588
partner 0.25 µg/mL	–	0.0475	–	0.0527	–	0.0319
partner 0.5 µg/mL	–	0.0477	–	0.0537	–	0.0347

O=C1CN(/N=C/c2ccc([N+](=O)[O-])o2)C(=O)N1 [Nitrofurantoin] + CN(C)c1cc(NC(=O)CNC(C)(C)C)c(O)c2c1C[C@H]1C[C@H]3[C@H](N(C)C)C(O)=C(C(N)=O)C(=O)[C@@]3(O)C(O)=C1C2=O [Tigecycline]
Details	Bliss interaction score
[1]	0.0708
[2]	0.178
[3]	0.0879
[4]	0.0547

fitness, [5]
Details	first compound 1.285 µg/mL	first compound 2 µg/mL	first compound 2.57 µg/mL	first compound 4 µg/mL	first compound 8 µg/mL
partner 0.65 µg/mL	0.939	0.96	0.932	0.971	0.921
partner 1.3 µg/mL	0.957	0.958	0.957	0.941	0.881
partner 2.6 µg/mL	0.949	0.919	0.936	0.937	0.9

[5], first compound 5.14 µg/mL, one replicate
Details	fitness
partner 0.65 µg/mL	0.922
partner 1.3 µg/mL	0.92
partner 2.6 µg/mL	0.894

C[C@@H](O)[C@H]1C(=O)N2C(C(=O)O)=C(SCCNC=N)C[C@H]12 [Imipenem] + CN[C@@H]1[C@H](O[C@H]2[C@H](O[C@H]3[C@H](O)[C@@H](O)[C@H](N=C(N)N)[C@@H](O)[C@@H]3N=C(N)N)O[C@@H](C)[C@]2(O)C=O)O[C@@H](CO)[C@H](O)[C@H]1O [Streptomycin]
Details	Bliss interaction score
[1]	0.076
[2]	0.1
[3]	0.0603
[4]	-0.0295

fitness, [5], one replicate
Details	first compound 0.005 µg/mL	first compound 0.01 µg/mL	first compound 0.02 µg/mL
partner 2 µg/mL	≥ 1	0.955	0.988
partner 16 µg/mL	0.779	0.813	0.786

fitness, [5]
Details	first compound 0.005 µg/mL	first compound 0.0065 µg/mL	first compound 0.01 µg/mL	first compound 0.013 µg/mL	first compound 0.02 µg/mL	first compound 0.026 µg/mL
partner 2 µg/mL	–	0.959	–	0.868	–	0.847
partner 4 µg/mL	0.965	0.923	0.986	0.903	0.97	0.886
partner 8 µg/mL	0.837	0.916	0.863	0.907	0.875	0.85
